target: HSD17B13 (Homo sapiens (Human), UniProt Q7Z5P4); assay: LC/MS estrone detection assay: conversion of estradiol to estrone by HSD17B13; assay type: biochemical; details: 4 μM estradiol, 6 mM NAD+, 30 nM HSD17B13 enzyme (E. coli expressed His-tagged), 2 hours at 26.5° C.
Method in brief: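 His-tagged E. coli-expressed HSD17B13 (30 nM) with 4 μM estradiol and 6 mM NAD+ in 1 M potassium phosphate pH 7.4, 0.5% DMSO, 2 h at 26.5° C. Estrone and estradiol quantified by LC-MS/MS after MeCN quench with D4-estrone internal standard; activity as % of uninhibited enzyme, IC50 by four-parameter fit, duplicates.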

Sequence of HSD17B13 (Q7Z5P4 20-300): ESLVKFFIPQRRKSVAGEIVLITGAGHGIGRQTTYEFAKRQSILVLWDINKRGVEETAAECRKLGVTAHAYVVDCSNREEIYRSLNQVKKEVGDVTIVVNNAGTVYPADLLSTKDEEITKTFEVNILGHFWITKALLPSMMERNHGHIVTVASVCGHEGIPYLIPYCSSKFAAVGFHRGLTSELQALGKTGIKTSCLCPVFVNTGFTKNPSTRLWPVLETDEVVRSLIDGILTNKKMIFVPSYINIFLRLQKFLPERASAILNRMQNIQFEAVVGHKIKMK

IC50	SMILES
100 to 500 nM	O=C(Nc1cccc2ncn(Cc3cccc(OC(F)(F)F)c3)c(=O)c12)c1cc(Cl)c(O)c(Cl)n1 [Example 49, 4,6-dichloro-5-hydroxy-N-(4-oxo-3-(3-(trifluoromethoxy)benzyl)-3,4-dihydroquinazolin-5-yl)picolinamide]
≤ 100 nM	Cc1nc2cccc(NC(=O)c3cc(Cl)c(O)c(Cl)c3)c2c(=O)n1Cc1ccccc1OC(F)(F)F [Example 64, 3,5-dichloro-4-hydroxy-N-(2-methyl-4-oxo-3-(2-(trifluoromethoxy)benzyl)-3,4-dihydroquinazolin-5-yl)benzamide]
100 to 500 nM	Cc1ccc(NC(=O)c2cc(Cl)c(O)c(Cl)n2)c2c(=O)n([C@@H]3CC[C@H]3c3ccccc3)c(C)nc12 [Example 202, 4,6-dichloro-N-(2,8-dimethyl-4-oxo-3-((1R,2S)-2-phenylcyclobutyl)-3,4-dihydroquinazolin-5-yl)-5-hydroxypicolinamide]
≤ 100 nM	[2H]C([2H])([2H])c1nc2c(C)ccc(NC(=O)c3cc(Cl)c(O)c(Cl)c3)c2c(=O)n1Cc1ccccc1C(F)(F)F [Example 179, 3,5-dichloro-4-hydroxy-N-(8-methyl-2-(methyl-d3)-4-oxo-3-(2-(trifluoromethyl)benzyl)-3,4-dihydroquinazolin-5-yl)benzamide]
≤ 100 nM	O=C(Nc1cccc2ncn(Cc3ccccc3C(F)(F)F)c(=O)c12)c1cc(Cl)c(O)c(Cl)c1 [Example 18, 3,5-dichloro-4-hydroxy-N-(4-oxo-3-(2-(trifluoromethyl)benzyl)-3,4-dihydroquinazolin-5-yl)benzamide]
100 to 500 nM	O=C(Nc1cccc2ncn(Cc3ncccc3F)c(=O)c12)c1cc(Cl)c(O)c(Cl)n1 [Example 140, 4,6-dichloro-N-(3-((3-fluoropyridin-2-yl)methyl)-4-oxo-3,4-dihydroquinazolin-5-yl)-5-hydroxypicolinamide]
100 to 500 nM	O=C(Nc1cccc2ncn(Cc3ccn(-c4ccccc4)n3)c(=O)c12)c1cc(Cl)c(O)c(Cl)c1 [Example 77, 3,5-dichloro-4-hydroxy-N-(4-oxo-3-((1-phenyl-1H-pyrazol-3-yl)methyl)-3,4-dihydroquinazolin-5-yl)benzamide]
100 to 500 nM	O=C(Nc1cccc2nc(C(F)(F)F)n(C3CC3c3ccccc3)c(=O)c12)c1cc(Cl)c(O)c(Cl)c1 (centres unmarked) [Example 116, 3,5-dichloro-4-hydroxy-N-(4-oxo-3-(2-phenylcyclopropyl)-2-(trifluoromethyl)-3,4-dihydroquinazolin-5-yl)benzamide]
100 to 500 nM	Cc1ccc(NC(=O)c2cc(Cl)c(O)c(Cl)c2)c2c(=O)n(Cc3cccnc3C(F)(F)F)c(C)nc12 [Example 142, 3,5-dichloro-N-(2,8-dimethyl-4-oxo-3-((2-(trifluoromethyl)pyridin-3-yl)methyl)-3,4-dihydroquinazolin-5-yl)-4-hydroxybenzamide]
500 to 1000 nM	O=C(Nc1ncsc1C(=O)NCC1CCC(F)(F)CC1)c1cc(Cl)c(O)c(Cl)c1 [Example 30, 4-(3,5-dichloro-4-hydroxybenzamido)-N-((4,4-difluorocyclohexyl)methyl) thiazole-5-carboxamide]
≤ 100 nM	O=C(Nc1cccc2ncn(Cc3ccc(C(F)(F)F)cc3)c(=O)c12)c1cc(Cl)c(O)c(Cl)c1 [Example 6, 3,5-dichloro-4-hydroxy-N-(4-oxo-3-(4-(trifluoromethyl)benzyl)-3,4-dihydroquinazolin-5-yl)benzamide]
100 to 500 nM	Cc1ccc(NC(=O)c2cc(Cl)c(O)c(Cl)c2)c2c(=O)n(Cc3ccccc3OC(F)(F)F)c(C(F)(F)F)nc12 [Example 112, 3,5-dichloro-4-hydroxy-N-(8-methyl-4-oxo-3-(2-(trifluoromethoxy)benzyl)-2-(trifluoromethyl)-3,4-dihydroquinazolin-5-yl)benzamide]
100 to 500 nM	Cc1ccc(NC(=O)c2cc(Cl)c(O)c(Cl)n2)c2c(=O)n(Cc3cccnc3C(F)(F)F)c(C)nc12 [Example 147, 4,6-dichloro-N-(2,8-dimethyl-4-oxo-3-((2-(trifluoromethyl)pyridin-3-yl)methyl)-3,4-dihydroquinazolin-5-yl)-5-hydroxypicolinamide]
≤ 100 nM	Cc1nc2c(F)ccc(NC(=O)c3cc(Cl)c(O)c(Cl)c3)c2c(=O)n1Cc1ccccc1OC(F)(F)F [Example 168, 3,5-dichloro-N-(8-fluoro-2-methyl-4-oxo-3-(2-(trifluoromethoxy)benzyl)-3,4-dihydroquinazolin-5-yl)-4-hydroxybenzamide]
500 to 1000 nM	Cc1ccc(NC(=O)c2cc(Cl)c(O)c(Cl)n2)c2c(=O)n(Cc3ncccc3Cl)c(C)nc12 [Example 178, 4,6-dichloro-N-(3-((3-chloropyridin-2-yl)methyl)-2,8-dimethyl-4-oxo-3,4-dihydroquinazolin-5-yl)-5-hydroxypicolinamide]
> 10000 nM	O=C(NCc1ccccc1OC(F)(F)F)C1CCCN1C(=O)c1cc(Cl)c(O)c(Cl)n1 (centres unmarked) [Example 127, 1-(4,6-dichloro-5-hydroxypicolinoyl)-N-(2-(trifluoromethoxy)benzyl) pyrrolidine-2-carboxamide]

SMILES	IC50
O=C(Nc1cccc2ncn(C3(c4ccccc4)CC3)c(=O)c12)c1cc(Cl)c(O)c(Cl)c1 [Example 20, 3,5-dichloro-4-hydroxy-N-(4-oxo-3-(1-phenylcyclopropyl)-3,4-dihydroquinazolin-5-yl) benzamide]	1000 to 10000 nM
